Source: patent US9371331B2, “Modulators of methyl modifying enzymes, compositions and uses thereof” (Constellation Pharmaceuticals, Inc., priority 2012, dated 2016)
Where two headings read alike, the source gives them in different places.

Tests used:
[1] = molecular target: EZH2 (rPRC2) (Homo sapiens, UniProt Q15910); test: EZH2 assay: rPRC2, biotinylated oligonucleosomes, 3H SAM methyl transfer (FlashPlate scintillation); assay type: biochemical; details: biotinylated oligonucleosome substrate
Chain of EZH2 (rPRC2) (Q15910 whole entry): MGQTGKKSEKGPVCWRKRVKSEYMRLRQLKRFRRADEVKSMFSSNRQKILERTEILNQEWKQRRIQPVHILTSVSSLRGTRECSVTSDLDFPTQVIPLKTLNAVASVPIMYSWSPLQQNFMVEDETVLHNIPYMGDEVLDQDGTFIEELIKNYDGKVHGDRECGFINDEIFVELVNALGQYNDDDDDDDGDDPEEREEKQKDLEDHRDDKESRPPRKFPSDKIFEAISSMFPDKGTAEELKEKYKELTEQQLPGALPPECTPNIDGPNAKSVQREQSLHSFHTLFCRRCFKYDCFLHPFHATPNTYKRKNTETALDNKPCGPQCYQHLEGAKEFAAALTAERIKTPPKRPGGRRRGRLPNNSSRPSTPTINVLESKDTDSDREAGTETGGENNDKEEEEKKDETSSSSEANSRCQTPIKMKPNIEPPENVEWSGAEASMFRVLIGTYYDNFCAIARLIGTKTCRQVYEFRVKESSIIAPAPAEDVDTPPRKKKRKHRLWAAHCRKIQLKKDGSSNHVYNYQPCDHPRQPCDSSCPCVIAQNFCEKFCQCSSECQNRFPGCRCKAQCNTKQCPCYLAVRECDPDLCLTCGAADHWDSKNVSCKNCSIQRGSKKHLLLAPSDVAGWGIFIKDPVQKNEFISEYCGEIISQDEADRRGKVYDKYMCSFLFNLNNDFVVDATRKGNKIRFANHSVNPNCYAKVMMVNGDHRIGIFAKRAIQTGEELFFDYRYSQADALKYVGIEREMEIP
Chain of EZH2 (rPRC2) (O75530 whole entry partner): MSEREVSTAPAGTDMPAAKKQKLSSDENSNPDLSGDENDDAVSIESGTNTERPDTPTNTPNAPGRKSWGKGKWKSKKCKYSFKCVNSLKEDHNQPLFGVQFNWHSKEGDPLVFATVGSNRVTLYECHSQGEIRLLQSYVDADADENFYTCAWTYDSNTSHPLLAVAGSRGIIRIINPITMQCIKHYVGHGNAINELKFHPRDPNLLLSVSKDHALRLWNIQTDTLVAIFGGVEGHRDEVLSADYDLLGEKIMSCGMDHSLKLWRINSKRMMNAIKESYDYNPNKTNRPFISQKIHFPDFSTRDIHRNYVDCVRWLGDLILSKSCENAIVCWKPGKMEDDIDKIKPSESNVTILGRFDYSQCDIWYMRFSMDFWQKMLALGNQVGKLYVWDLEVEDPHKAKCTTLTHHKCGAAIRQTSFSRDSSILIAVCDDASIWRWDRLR
Chain of EZH2 (rPRC2) (Q15022 whole entry partner): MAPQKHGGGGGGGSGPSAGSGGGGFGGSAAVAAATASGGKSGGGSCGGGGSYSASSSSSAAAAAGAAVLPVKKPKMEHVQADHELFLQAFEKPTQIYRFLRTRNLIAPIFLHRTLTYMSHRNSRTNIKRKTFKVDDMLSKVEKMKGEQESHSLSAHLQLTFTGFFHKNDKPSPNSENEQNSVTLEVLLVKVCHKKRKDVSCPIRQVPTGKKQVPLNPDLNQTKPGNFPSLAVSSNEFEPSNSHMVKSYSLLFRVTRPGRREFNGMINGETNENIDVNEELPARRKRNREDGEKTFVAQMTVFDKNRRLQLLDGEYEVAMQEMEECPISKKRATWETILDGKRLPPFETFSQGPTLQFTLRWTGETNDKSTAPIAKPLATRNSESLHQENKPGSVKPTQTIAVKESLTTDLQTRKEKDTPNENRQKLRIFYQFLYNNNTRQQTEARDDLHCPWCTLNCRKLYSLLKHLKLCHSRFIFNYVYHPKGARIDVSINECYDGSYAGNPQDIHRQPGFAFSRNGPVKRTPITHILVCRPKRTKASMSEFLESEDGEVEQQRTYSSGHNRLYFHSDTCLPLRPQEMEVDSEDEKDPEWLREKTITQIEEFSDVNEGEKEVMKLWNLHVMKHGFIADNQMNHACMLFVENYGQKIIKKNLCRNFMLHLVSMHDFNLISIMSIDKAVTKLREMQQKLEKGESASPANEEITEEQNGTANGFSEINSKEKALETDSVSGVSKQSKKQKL
Experimental: Assays were carried out by mixing rPRC2 together with biotinylated oligonucleosome substrates in the presence of the radio-labeled enzyme co-factor, S-adenosyl-1-methionine (^3H SAM) (Perkin Elmer) and monitoring the enzymatically mediated transfer of tritiated methyl groups from ^3H SAM to histone lysine residues. The amount of resulting tritiated methyl histone product was measured by first capturing the biotinylated oligonucleosomes in streptavidin (SAV) coated FlashPlates (Perkin Elmer), followed by a wash step to remove un-reacted ^3H SAM, and then counting on a TopCount NXT 384 well plate scintillation counter (Perkin Elmer). The final assay conditions for EZH2 were as follows: 50 mM Tris Buffer pH 8.5, 1 mM DTT, 69 μM Brij-35 detergent, 5.0 mM MgCl2, 0.1 mg/mL BSA, 0.2 μM ^3H SAM, 0.2 μM biotinylated oligonucleosomes, 3.6 μM H3K27 mc3 peptide and 2 nM EZH2.
A 12.5 μL volume of the HMT enzyme, H3K27me3 peptide and oligonucleosome substrate in assay buffer was added to each well of the assay plate using a Multidrop Combi (ThermoFisher). Compounds were pre-incubated with the enzyme for 20 min, followed by initiation of the methyltransferase reaction by addition of 12.5 μL of ^3H SAM in assay buffer (final volume=25 μL). The final concentrations of compounds ranged from a top default concentration of 80 μM down to 0.16 μM in ten 2-fold dilution steps. Reactions were carried out for 60 minutes and quenched with 20 μL per well of 1.96 mM SAH, 50 mM Tris pH 8.5, 200 mM EDTA. Stopped reactions were transferred to SAV coated Flashplates (Perkin Elmer), incubated for 120 min, washed with a plate washer, and then read on the TopCount NXT (1.0 min/well) to measure the amount of methyl histone product formed during the reaction.

[2] = molecular target: Y641N EZH2 (Homo sapiens, UniProt Q15910, Y641N); test: Y641N EZH2 assay: as EZH2 assay, with reconstituted H3K27Me2 oligonucleosomes as substrate; assay type: biochemical
Chain of Y641N EZH2 (Q15910 whole entry Y641N): as the sequence (Q15910 whole entry) above, with Y641N counted along it
Chain of Y641N EZH2 (O75530 whole entry partner): as the sequence (O75530 whole entry partner) above
Chain of Y641N EZH2 (Q15022 whole entry partner): as the sequence (Q15022 whole entry partner) above

[3] = EZH2 IC50, wild-type EZH2 (rPRC2)
[4] = Y641N EZH2 IC50, Y641N mutant EZH2, H3K27Me2 oligonucleosome substrate
[5] = wild-type EZH2 (rPRC2), read-out: EZH2 IC50
[6] = Y641N mutant EZH2, H3K27Me2 oligonucleosome substrate, read-out: Y641N EZH2 IC50

Row | Compound | IC50 [1, 3] [µM] | IC50 [2, 4] [µM] | IC50 [1, 5] [µM] | IC50 [2, 6] [µM]
1 | COc1cc(C)[nH]c(=O)c1CNC(=O)c1c(C)n(C(C)C2CCN(CC(=O)O)CC2)c2ccccc12 (single isomer, unassigned) [Compound 364, (R or S)-2-(4-(1-(3-((4-methoxy-6-methyl-2-oxo-1,2-dihydropyridin-3-yl)methylcarbamoyl)-2-methyl-1H-indol-1-yl)ethyl)piperidin-1-yl) acetic acid] | < 0.1 | 0.1 to 1 | – | –
2 | CCCc1cc(C)[nH]c(=O)c1CNC(=O)c1c(C)n(C(C)COC)c2ncccc12 (racemic) [Compound 216, (±)-1-(1-methoxypropan-2-yl)-2-methyl-N-((6-methyl-2-oxo-4-propyl-1,2-dihydropyridin-3-yl)methyl)-1H-pyrrolo[2,3-b]pyridine-3-carboxamide] | 0.1 to 1 | 1 to 10 | – | –
3 | CC[C@@H](C)n1c(C)c(C(=O)NCc2c(C)cc(C)[nH]c2=O)c2cnc(CO)nc21 [Compound 199, (R)-7-(sec-butyl)-N-((4,6-dimethyl-2-oxo-1,2-dihydropyridin-3-yl)methyl)-2-(hydroxymethyl)-6-methyl-7H-pyrrolo[2,3-d]pyrimidine-5-carboxamide] | – | – | 0.1 to 1 | 1 to 10
4 | Cc1cc(C)c(CNC(=O)c2c(C)n(C(C)c3cccc(C#N)c3)c3ccccc23)c(=O)[nH]1 (single isomer, unassigned) [Compound 228, (R or S)-1-(1-(3-cyanophenyl)ethyl)-N-((4,6-dimethyl-2-oxo-1,2-dihydropyridin-3-yl)methyl)-2-methyl-1H-indole-3-carboxamide] | 0.1 to 1 | 0.1 to 1 | – | –
5 | Cc1cc(C)c(CNC(=O)c2c(C)n([C@H](C)c3ccccc3)c3nc(C(C)C)ncc23)c(O)n1 [Compound 177, (R)-N-((2-hydroxy-4,6-dimethylpyridin-3-yl)methyl)-2-isopropyl-6-methyl-7-(1-phenylethyl)-7H-pyrrolo[2,3-d]pyrimidine-5-carboxamide] | < 0.1 | 0.1 to 1 | – | –
6 | (±)-N-((6-(hydroxymethyl)-4-methoxy-2-oxo-1,2-dihydropyridin-3-yl)methyl)-1-(1-methoxypropan-2-yl)-2-methyl-1H-pyrrolo[2,3-b]pyridine-3-carboxamide [Compound 262] | – | – | 0.1 to 1 | 1 to 10
7 | COc1cc(C)[nH]c(=O)c1CNC(=O)c1c(C)n([C@H](C)[C@H](OC)C2CC2)c2ncccc12 (single isomer, unassigned) [Compound 285, 1-((1R or S, 2R or S)-1-cyclopropyl-1-methoxypropan-2-yl)-N-((4-methoxy-6-methyl-2-oxo-1,2-dihydropyridin-3-yl)methyl)-2-methyl-1H-pyrrolo[2,3-b]pyridine-3-carboxamide] | 0.1 to 1 | 1 to 10 | – | –
8 | Cc1cc(C)c(CNC(=O)c2c(C)n(C(=O)c3ccccc3)c3ccccc23)c(O)n1 [Compound 150, 1-benzoyl-N-((2-hydroxy-4,6-dimethylpyridin-3-yl)methyl)-2-methyl-1H-indole-3-carboxamide] | – | – | 0.1 to 1 | 0.1 to 1
9 | CC[C@@H](C)n1c(C)c(C(=O)NCc2c(C)cc(C)[nH]c2=O)c2cnc(C(=O)NC)nc21 [Compound 198, (R)-7-(sec-butyl)-N5-((4,6-dimethyl-2-oxo-1,2-dihydropyridin-3-yl)methyl)-N2,6-dimethyl-7H-pyrrolo[2,3-d]pyrimidine-2,5-dicarboxamidc] | – | – | 1 to 10 | 1 to 10
10 | Cc1cc(C)c(CNC(=O)c2c(C)n(C(C)Cn3cccn3)c3ncccc23)c(=O)[nH]1 (racemic) [Compound 221, (±)-1-(1-(1H-pyrazol-1-yl)propan-2-yl)-N-((4,6-dimethyl-2-oxo-1,2-dihydropyridin-3-yl)methyl)-2-methyl-1H-pyrrolo[2,3-b]pyridine-3-carboxamide] | – | – | 0.1 to 1 | 1 to 10
11 | COc1ccccc1C(C)n1c(C)c(C(=O)NCc2c(C)cc(C)[nH]c2=O)c2ccccc21 (racemic) [Compound 186, (±)-N-((4,6-dimethyl-2-oxo-1,2-dihydropyridin-3-yl)methyl)-1-(1-(2-methoxyphenyl)ethyl)-2-methyl-1H-indole-3-carboxamide] | 0.1 to 1 | 0.1 to 1 | – | –
12 | Cc1cc(C)c(CNC(=O)c2c(C)n(C(C)c3cccc(-c4ccncn4)c3)c3ccccc23)c(=O)[nH]1 (racemic) [Compound 205, (±)-N-((4,6-dimethyl-2-oxo-1,2-dihydropyridin-3-yl)methyl)-2-methyl-1-(1-(3-(pyrimidin-4-yl)phenyl)ethyl)-1H-indole-3-carboxamide] | 0.1 to 1 | 0.1 to 1 | – | –
13 | Cc1cc(C)c(CNC(=O)c2c(C)n(C(C)CCO)c3ncccc23)c(=O)[nH]1 (racemic) [Compound 193, (±)-N-((4,6-dimethyl-2-oxo-1,2-dihydropyridin-3-yl)methyl)-1-(4-hydroxybutan-2-yl)-2-methyl-1H-pyrrolo[2,3-b]pyridine-3-carboxamide] | 0.1 to 1 | 1 to 10 | – | –
14 | COc1cc(C)[nH]c(=O)c1CNC(=O)c1c(C)n(C(C)[C@H]2CNCCO2)c2ncncc12 (stereo partly drawn) [Compound 351, N-((4-methoxy-6-methyl-2-oxo-1,2-dihydropyridin-3-yl)methyl)-6-methyl-7-(1-((R)-morpholin-2-yl)ethyl)-7H-pyrrolo[2,3-d]pyrimidine-5-carboxamide] | < 0.1 | 0.1 to 1 | – | –
15 | COc1cc(C)[nH]c(=O)c1CNC(=O)c1c(C)n(C(C)C(OC)c2ccccc2)c2ncccc12 (stereo not shown) [Compound 265, 1-(1-methoxy-1-phenylpropan-2-yl)-N-((4-methoxy-6-methyl-2-oxo-1,2-dihydropyridin-3-yl)methyl)-2-methyl-1H-pyrrolo[2,3-b]pyridine-3-carboxamide] | – | – | < 0.1 | 0.1 to 1
16 | Cc1cc(C)c(CNC(=O)c2c(C)n(C(C)c3ccccc3C)c3ccccc23)c(=O)[nH]1 (racemic) [Compound 174, (±)-N-((4,6-dimethyl-2-oxo-1,2-dihydropyridin-3-yl)methyl)-2-methyl-1-(1-(o-tolyl)ethyl)-1H-indole-3-carboxamide] | 0.1 to 1 | 1 to 10 | – | –
17 | CC[C@@H](C)n1c(C)c(C(=O)NCc2c(C)cc(C)nc2O)c2cncnc21 [Compound 189, (R)-7-(sec-butyl)-N-((2-hydroxy-4,6-dimethylpyridin-3-yl)methyl)-6-methyl-7H-pyrrolo[2,3-d]pyrimidine-5-carboxamide] | 0.1 to 1 | 1 to 10 | – | –
18 | Cc1cc(C)c(CNC(=O)c2c(C)n(C(C)Cn3ccccc3=O)c3ncccc23)c(=O)[nH]1 (racemic) [Compound 249, (±)-N-((4,6-dimethyl-2-oxo-1,2-dihydropyridin-3-yl)methyl)-2-methyl-1-(1-(2-oxopyridin-1(2H)-yl)propan-2-yl)-1H-pyrrolo[2,3-b]pyridine-3-carboxamide] | – | – | 0.1 to 1 | 1 to 10
19 | Cc1cc(C)c(CNC(=O)c2c(C)n(C(C)C3CC3)c3ncccc23)c(=O)[nH]1 (single isomer, unassigned) [Compound 252, (R or S)-(±)-1-(1-cyclopropylethyl)-N-((4,6-dimethyl-2-oxo-1,2-dihydropyridin-3-yl)methyl)-2-methyl-1H-pyrrolo[2,3-b]pyridine-3-carboxamide] | < 0.1 | 0.1 to 1 | – | –
20 | Cc1cc(C)c(CNC(=O)c2c(C)n(C(C)c3ccccc3)c3cnccc23)c(=O)[nH]1 (single isomer, unassigned) [Compound 247, (R or S)—N-((4,6-dimethyl-2-oxo-1,2-dihydropyridin-3-yl)methyl)-2-methyl-1-(1-phenylethyl)-1H-pyrrolo[2,3-c]pyridine-3-carboxamide] | < 0.1 | < 0.1 | – | –
21 | COc1cc(C)[nH]c(=O)c1CNC(=O)c1c(C)n(C(=O)CC(C)C)c2ccccc12 [Compound 329, N-((4-methoxy-6-methyl-2-oxo-1,2-dihydropyridin-3-yl)methyl)-2-methyl-1-(3-methylbutanoyl)-1H-indole-3-carboxamide] | – | – | 0.1 to 1 | 0.1 to 1
22 | Cc1cc(C)c(CNC(=O)c2c(C)n(C(C)c3ccccc3)c3c(=O)n(C)ccc23)c(=O)[nH]1 (racemic) [Compound 139, N-((4,6-dimethyl-2-oxo-1,2-dihydropyridin-3-yl)methyl)-2,6-dimethyl-7-oxo-1-(1-phenylethyl)-6,7-dihydro-1H-pyrrolo[2,3-c]pyridine-3-carboxamide] | – | – | 0.1 to 1 | 1 to 10
23 | COCC(C)n1c(C)c(C(=O)NCc2c(OC)cc(C)[nH]c2=O)c2ccc(C(F)(F)F)nc21 (racemic) [Compound 309, (±)-N-((4-methoxy-6-methyl-2-oxo-1,2-dihydropyridin-3-yl)methyl)-1-(1-methoxypropan-2-yl)-2-methyl-6-(trifluoromethyl)-1H-pyrrolo[2,3-b]pyridine-3-carboxamide] | 0.1 to 1 | 1 to 10 | – | –
